# What was measured:
# Mtb H37Rv [1] = assay: Guinea pig infection model of tuberculosis, lung bacterial burden, Inh with or without CQ; format: in vivo, Outbred Hartley guinea pigs; conditions: Guinea pigs (FIG. 1F)
# [2] = Plasma concentrations and exposures of CQ by intraperitoneal or oral route; conditions: in vivo
# Mtb H37Rv [3] = assay: Mouse chronic infection model of tuberculosis, lung bacterial CFU, Inh or Rif with or without CQ; format: in vivo, BALB/c mice; conditions: mice, 10 mg/kg chloroquine added to first line TB drug (FIGS. 1B, 1C)
# TB = assay: Direct in vitro activity on TB
# Mtb within macrophages = assay: Drug tolerance and killing of Mtb within macrophages; format: cell-based; conditions: by deacidification
# Mtb H37Rv [4] = assay: Dexamethasone-induced reactivation (relapse) of Mtb in the lungs of chronically infected BALB/c mice after treatment; format: in vivo
smiles,measurement,setting,value
CCN(CC)CCCC(C)Nc1ccnc2cc(Cl)ccc12 (stereo not shown) [Chloroquine],Bacterial killing and efficacy on addition of chloroquine to Isoniazid,Mtb H37Rv [1],enhanced bacterial killing and efficacy
same,"Plasma concentrations and exposures, intraperitoneal versus oral route",[2],nearly equivalent plasma concentrations and exposures
same,Bacterial killing and efficacy on addition of chloroquine to Isoniazid (H) or Rifampicin (R),Mtb H37Rv [3],enhanced bacterial killing and efficacy
same,Direct in vitro activity on TB,TB,no or limited direct in vitro activity on TB
same,Effect on phenotypic drug tolerance and killing of Mtb within macrophages,Mtb within macrophages,counteracts phenotypic drug tolerance and accelerates killing of Mtb within macrophages
"NNC(=O)c1ccncc1 [Inh alone, Isoniazid]",Average log10CFU per lung,"Mtb H37Rv [4]; reactivated Mtb in lungs after dexamethasone immunosuppression, 22nd week p.i., average over relapsed animals",4.2 (n = 5) log10CFU per lung
same,Percentage relapse,"Mtb H37Rv [4]; treatment stopped at 12 weeks p.i., 8 weeks without treatment, then dexamethasone 10 mg/kg i.p. x4 over 2 weeks, lungs at 22nd week p.i., n=5",100% (5/5)
